Patent US20100249439A1, “PROCESS FOR CONTROLLED CRYSTAL SIZE IN 1,2-SUBSTITUTED 3,4-DIOXO-1-CYCLOBUTENE COMPOUNDS” (priority 2007, published 2010)

Assay: Specific cake resistance measurement (pressure filtration of crystal slurry, Tiller equation)
Format: physicochemical
Protocol: There follows examples of the present invention controlled crystallization process yielding crystalline material having improved filter cake specific resistance. For each of these examples, the filter cake specific resistance was measured in accordance with the following procedure. Specific Cake Resistance Measurement Procedure V(i): Into a pressure filter, the crystal slurry was filled. The filtration was then carried out under a constant pressure while the filtrate volume along with the filtration time was logged. During the cake formation, the relationship between the filtrate volume and the filtration time can be described by the Tiller equation: [formula] where: μ is the viscosity of filtrate, lb/ft-s or Pa·s; α is a specific cake resistance, ft, lb or […]; c is the mass solid deposited in the filter per unit volume of filtrate, lb/ft^3 or kg/m^3: A is the filtration area, ft^2 or m^2; gc is Newton's law proportionality factor; p is the pressure, lbf/ft2 or atm; Rm is the filter-medium resistance, ft^−1 or m^−1. The specific cake resistance a can be calculated from the slope of the linear plot of t/V vs. V.

For CC[C@@H](Nc1c(Nc2cccc(C(=O)N(C)C)c2O)c(=O)c1=O)c1ccc(C)o1 [compound of Formula I, 2-Hydroxy-N,N-dimethyl-3-[[2-[[1(R)-(5-methyl-2-furanyl)propyl]amino]-3,4-dioxo-1-cyclobuten-1-yl]amino]benzamide], the “filter cake specific resistance” value (Form 4 crystals precipitated from the reaction mixture of Scheme IIa steps a and b, conventional crystallization without temperature cycling) was “about 8.0×10^11 m/kg”, the “filter cake specific resistance” value (Form 4 monohydrate crystals from n-propanol/water after seeding and temperature cycling (Va: 4 cycles 53-20° C.; Vb: 8 cycles; Vc: 19 cycles 43-20° C.), listed as Example Va) was 6.4×10^11 m/Kg and the “filter cake specific resistance” value (Form 4 monohydrate crystals from n-propanol/water after seeding and temperature cycling (Va: 4 cycles 53-20° C.; Vb: 8 cycles; Vc: 19 cycles 43-20° C.), listed as Example Vb) was 2.5×10^11 m/Kg. For the same compound, the “filter cake specific resistance” value (Form 4 monohydrate crystals from n-propanol/water after seeding and temperature cycling (Va: 4 cycles 53-20° C.; Vb: 8 cycles; Vc: 19 cycles 43-20° C.), listed as Example Vc) was 1.99×10^11 m/Kg.
